The values that follow come from patent publication EP0124891A2, “Antimutagenic agent and method of inactivating the mutagenicity of foods and beverages by using said agent” (SUNTORY LIMITED, priority 1983, dated 1984).

SMILES strings stand for the structures.

Series [1] deals with mouse deodenum. Particulars: 0.1 % of hydrogen peroxide; cited from earlier work.
For series [2], the system named is Salmonella typhimurium TA 100. As to the kind of experiment: Mutagenicity and antimutagenic effect, Salmonella test (Ames), preincubation method, revertant colony count. Particulars: Salmonella typhimurium TA 100 (histidine-requiring), 48 h, pH 7.4.
Description: Histidine-requiring Salmonella typhimurium TA 100 (hereunder S. TA 100) was used.
Instant coffee powder was dissolved in distilled water. Predetermined amounts of wheat germ preparations were also dissolved in distilled water, and 50 µl of each solution was mixed with an equal amount of the aqueous coffee solution.
Roasted coffee beans (20 g) were extracted with hot distilled water (250 ml), and the extract was filtered through coffee filter paper No. 12 manufactured by Kalita Co., Ltd. The extract was freeze-dried, and after measuring the weight of the dry product, it was dissolved in distilled water. Predetermined amounts of wheat germ preparations were also dissolved in distilled water, and 50 µl of each solution was mixed with an equal amount of the aqueous solution of coffee concentrate. […]
To 100 µl of each of the samples prepared in (iii)(a) to (f), 500 µl of 0.1 M sodium phosphate buffer (pH 7.4) plus 100 µl of a culture of S. TA 100 strain were added. […] After incubation at 37°C for 48 hours, the number of colonies forming on the plate was counted as revertants. The percent inhibition of mutagenicity can be calculated by the following formula, if necessary: [formula]
A powder of extracted coffee beans (15 mg) as prepared by the method shown in I)(iii)(b) was dissolved in distilled water to make 50 µl. […] The mutagenicity of each mixture was determined by the method shown in I)(i).
In series [3] the test system is Neuros^pera crassa. Particulars: cited from earlier work.
The subject of series [4] is human cells. Particulars: cited from earlier work.

As to `OO` [Hydrogen peroxide, hydrogen peroxide], in series [1], the carcinogenicity entry was “proved to cause malignant tumors”. In addition, the “mutagenicity to S. TA 100” value in series [2] is 160 revertants/10^8 survivors/Pmole. In addition, in series [3], the “mutagenicity to Neurospora crassa” value was “mutagenic”. For the same compound, the “clastogenicity to human cells” value in series [4] is on record as “clastogenic”.
